Reference: patent US9855277B2, “Use of 5H-dibenz/b,f/azepine-5-carboxamide derivatives for treating fibromyalgia” (BIAL—PORTELA & CA, S.A., priority 2009, dated 2018)

How the values were obtained:
[1] = test system: mice with chronic constriction nerve injury (CCI); test: Paw withdrawal threshold (von Frey filaments) in CCI mice; format: in vivo
Procedure: The materials used were (as also indicated in FIGS. 1 and 2): • Vehicle: 0.5% hydroxy-propyl-methyl-cellulose (HPMC) in water, 5 ml/kg, p.o.; • 50 mg/kg, 100 mg/kg, 150 mg/kg and 200 mg/kg: ESL at 50, 100, 150 and 200 mg/kg, p.o.; • GP 100 mg/kg: gabapentin 100 mg/kg, p.o.
The potential analgesic effects of orally dosed ESL was investigated at doses of 50, 100, 150 and 200 mg/kg, on the paw withdrawal threshold (PWT) and these effects compared with those of the dose vehicle and gabapentin, the latter at 100 mg/kg, in a mouse model of chronic constriction nerve injury (CCI).
Each animal received a single oral dose of either ESL (50, 100, 150, or 200 mg/kg), or gabapentin (100 mg/kg in saline) or vehicle (5 ml/kg). Behavioural testing was then performed twice, at approximately 60 and 120 minutes post-dose, to investigate the effect of treatments.

[2] = Plasma bioanalysis in CCI mice after oral ESL; format: in vivo; details: oral ESL
[3] = test system: peripheral nerve filaments of CCI mice; test: Ectopic discharge of peripheral nerve filaments in CCI mice (electrophysiological recording); format: in vivo; details: for ectopic discharge firing rate: 5 preparations
Source text: Adult male BL CB F1 mice, weighing 25-30 g at the time of surgery and 26-38 g at the time of electrophysiological experiments, were used. The baseline paw withdrawal threshold (PWT) was examined using a series of graduated von Frey hairs (see below) on 3 consecutive days before surgery and re-assessed on the 7th and on the 14th days after surgery, before electrophysiological recording. The animals were killed by an overdose of pentobarbitone on completion of the study. The chronic constriction injury (CCI) model was prepared following the standard protocols described previously (Bennett and Xie, 1988). Mice were anaesthetised and the lateral side of the left thigh was shaved and sterilized with 75% ethanol. A small incision of approximately 0.5 cm was made parallel to the femur. The muscle was carefully separated to expose the sciatic nerve. Three loose ligatures were placed on the sciatic nerve with 5-0 suture silk thread at approximately 1 mm intervals. The wound was closed in layers with suture silk 4-0 and the animals were placed in a recovery chamber with the temperature controlled and set at 30° C. A dose of amoxicillin (0.02 mL, 3 mg) was routinely injected i.p. after surgery to prevent infection. The animals were returned to their home cages after complete recovery of consciousness and freedom of movement. For the first 2 days after surgery, the animals were closely monitored at least twice daily and subsequently, at least once daily until compound testing. Each animal was placed in a perspex cage on a metal mesh. A series of von Frey filaments (0.07 g, 0.16 g, 0.4 g, 0.6 g, 1.0 g) were applied to the plantar surface of the hind-paw, from below. The filaments were applied in ascending order (starting with the lowest force 0.07 g) to both ipsilateral and contralateral hind-paws. Each filament was applied 10 times with a protocol of one second on, one second off. The PWT was defined as being the lowest force required to elicit at least 5 paw withdrawal responses out of 10 trials. The baseline PWT was tested for 3 consecutive days before surgery and re-assessed on the 7th and 14th days after surgery to monitor the development of mechanical allodynia. Only those mice showing significant mechanical allodynia (PWT≦0.2 g) were selected for subsequent electrophysiological experiments. The mice were re-anaesthetised and the sciatic nerve was exposed via a dorsal incision on the hind-limb. The skin was secured (stitched) to a metal O-ring to form an oil pool for recording nerve activity. A reference electrode was connected to the metal O-ring to form a closed circuit with the nerve recording electrode. To record ectopic discharge generated from the intact animal, under a microscope, the small bundles of sural nerve (distal to the ligated area) were repeatedly teased and looped onto a unipolar silver electrode for examination. To facilitate the recording of ectopic discharge generated from the neuroma (ligated area) or from the DRG, the sciatic nerve was separated carefully from the surrounding connective tissues, sectioned at a more proximal site leaving the injured area intact or near the injured area leaving the more proximal part intact. A small bundle of nerve filaments were teased from the sciatic nerve from either the distal or proximal cut end of the sciatic nerve, to record neuroma-generated ectopic discharge, or from the proximal cut end to record DRG-generated ectopic discharge. The filament was looped on to a unipolar silver wire recording electrode with an indifference electrode connected to the connective tissues nearby, allowing the spontaneous activity generated from either the ligated area (sensitized axons) or from DRG (somata) to be recorded. The electrical signals were then recorded through a CED micro-1401 interface to a PC for later off-line analysis. Recording from a fibre with spontaneous activity was undertaken for at least 10 min for control and 40 min after either vehicle or ESL administration. […]

Mice (NMRI) = test: Formalin paw test; format: in vivo; details: 300 mg/kg p.o.
Procedure: The method, which detects analgesic activity, follows that described by Wheeler-Aceto et al (see […]-ACETO, H. & A., C. (1991), “Standardization of the rat paw formalin test for the evaluation of analgesics”, Psychopharmacology, 104, 35-44). Mice (NMRI) were given an intraplantar injection of 5% formalin (25 μl) into the posterior left paw. […] The time spent licking was counted for 15 minutes, beginning 15 minutes after injection of formalin. 10 mice were studied per group. The test was performed blind. ESL and carbamazepine (CBZ) were tested at the doses of 10, 30, 100 and 300 mg/kg p.o., and oxcarbazepine (OXC) and R-Lic were tested at the doses of 100 and 300 mg/kg p.o., administered 60 minutes before the test (i.e. 45 minutes before formalin), and compared with a vehicle control group in each experiment. Morphine (64 mg/kg p.o.), administered under the same experimental conditions, was used as reference substance.

[4] = test system: patients with partial epilepsy; test: MADRS, open label extension of phase 3 study, Trial 1; format: in vivo, human
Procedure: During an open label extension of a phase 3 study with ESL, the effect on depressive symptoms in patients taking at least one other anti-epileptic drug was assessed using the Montgomery Åsberg Depression Rating Scale (MADRS) at the end of treatment (after one year or after early discontinuation) and results compared with those at baseline. Patients were treated with ESL dosages in the range of 400-1500 mg, the majority being treated once daily with 800 mg ESL.

Question: For CC(=O)O[C@H]1Cc2ccccc2N(C(N)=O)c2ccccc21 [ESL, S-(−)-10-acetoxy-10,11-dihydro-5H-dibenz/b,f/azepine-5-carboxamide], which “PWT in the contralateral limbs vs vehicle group” value ([1]; 50 mg/kg group on 14th to 16th day, P<0.05) is on record?
Answer: Its value is “significantly higher”.

Question: What about the “potency and efficacy compared with reference compound” value ([1]; CCI mice, PWT) of the same compound?
Answer: The value was “potency and efficacy similar to the reference compound, gabapentin”.

Question: And the “PWT in the ipsilateral hindpaw” value ([1]; ESL 50, 100, 150, 200 mg/kg p.o., single dose, tested about 60 and 120 min post-dose)?
Answer: Its value is “dose-dependently increased the PWT”.

Question: What about the “PWT in the contralateral side” value ([1]; ESL 50-200 mg/kg p.o., vs vehicle) of the same compound?
Answer: Its value is “did not significantly affect the PWT”.

Question: What about the “duration of the effect on PWT after dosing” value ([1]; ESL p.o., ipsilateral hindpaw) of the same compound?
Answer: The value was “more than 2 hours”.

Question: What about the “main metabolite in plasma” value [2] of the same compound?
Answer: Its value is “mainly to eslicarbazepine”.

Question: What about the “time to complete metabolism after administration (plasma)” value [2] of the same compound?
Answer: The value was no more than 1 h.

Question: What about the “ectopic discharge, % of control” value ([3]; DRG origin, ESL 100 mg/kg i.p., P<0.05 vs vehicle) of the same compound?
Answer: The value was 58.43±13.21 % of control.

Question: What about the “ectopic discharge average firing rate” value ([3]; DRG origin, ESL 100 mg/kg i.p., control 514.3±141.0, 6 preparations) of the same compound?
Answer: Its value is 274.4±117.1 imps/min.

Question: And the “ectopic discharge, % of control level” value ([3]; intact CCI mice, ESL 100 mg/kg ip, 30-35 min after injection, P<0.001 vs control)?
Answer: Its value is 26.6±10.6 % of control.

Question: And the “ectopic discharge firing rate” value ([3]; intact CCI mice, ESL 100 mg/kg ip, 30-35 min after injection, control 2048.0±391.6, mean±SEM)?
Answer: The value was 699.8±339.7 imps/min.

Question: What about the “ectopic discharge firing rate” value ([3]; neuroma origin (sciatic nerve sectioned proximally), ESL 100 mg/kg ip, 30 min after injection, control 1390.6±378.5) of the same compound?
Answer: Its value is 643.5±249.2 imps/min.

Question: What about the “ectopic discharge, % of control levels” value ([3]; neuroma origin, ESL 100 mg/kg ip, 30 min after injection, P<0.01) of the same compound?
Answer: The value was 36.5±12.3 % of control.

Question: And the “licking in the formalin test at 300 mg/kg” value (Mice (NMRI))?
Answer: The value was “abolished licking”.

Question: What about the “MADRS total score at end of treatment” value ([4]; ITT population (166 patients), baseline 10.5, ESL 400-1500 mg, mostly 800 mg once daily, one year or early discontinuation, p<0.05) of the same compound?
Answer: Its value is 7.8.

Question: And the “depressive symptoms (MADRS), change from baseline” value ([4]; long-term open-label adjunctive therapy, partial epilepsy)?
Answer: The value was “Statistically and clinically significant improvement from baseline”.
